Source: patent publication US5661139A, “Bis-(2-aryl) hydrazones” (Alteon Inc., priority 1995, dated 1997)
pIC50: −log10 of the molar value.

Tested on: not listed separately
Test: Inhibition of cross-linking of N-acetyl glycyl-lysine methyl ester in the presence of ribose (fluorescence)
Format: biochemical
Conditions: 0.5M sodium phosphate buffer pH 7.4, ribose, 37 C, 16-24 hours; fluorescence ex 350 nm / em 400 nm
Method: N-acetylglycyllysine methyl ester (DP in formula below) Ribose (R in formula below)
0.5M sodium phosphate buffer pH 7.4 N-acetylglycyllysine methyl ester in 0.5M sodium phosphate buffer, pH 7.4
Test compounds dissolved in the above buffer and the pH is adjusted to 7.4, if necessary
Reaction mixtures are prepared as follows:
and incubated at 37 C for 16-24 hours. At the end of the incubation period, the fluroescence is read using an excitation wavelength of 350 nm and emission wavelenth of 400 nm. The inhibition of the cross-linking is calculated from the decrease in the fluorescence in the presence of the test compounds according to the formula:
Inhibition (%)=100×[DPRC fluorescence-RC fluorescence]/DPR

| Compound | pIC50 |
| --- | --- |
| CC(C=NNc1ccccc1C(=O)OCc1ccc([N+](=O)[O-])cc1)=NNc1ccccc1C(=O)OCc1ccc([N+](=O)[O-])cc1 | 2.00 |
| CCOC(=O)c1ccccc1NN=CC(C)=NNc1ccccc1C(=O)OCC [Methyl Glyoxal Bis-(Diethyl 2-Hydrazinobenzoate) Hydrazone] | 2.00 |
| COC(=O)c1ccc(NN=CC(C)=NNc2ccc(C(=O)OC)cc2)cc1 [Methyl Glyoxal Bis-(Dimethyl 4-Hydrazinobenzoate) Hydrazone] | 2.00 |
| CC(C=NNc1ccccc1C(=O)OCCOCCOCCO)=NNc1ccccc1C(=O)OCCOCCOCCO [Methyl Glyoxal Bis-(Triethylene Glycol 2-Hydrazinobenzoate) Hydrazone] | 2.82 |
| CC(C=NNc1ccccc1C(=O)OCc1ccncc1)=NNc1ccccc1C(=O)OCc1ccncc1 [Methyl Glyoxal Bis-[4-Methylpyridyl)-2-Hydrazinobenzoate] Hydrazone] | 2.91 |
| Methyl Glyoxal Bis-[(1-Hydroxymethyl-1-Acetoxy)-2-Hydrazinobenzoate] Hydrazone | 3.12 |

Second part, the compound after the results:

| pIC50 | Compound |
| --- | --- |
| 3.22 | CC(C=NNc1ccccc1C(=O)OCCOP(=O)(O)O)=NNc1ccccc1C(=O)OCCOP(=O)(O)O [Methyl Glyoxal Bis-(2-Hydroxyethylphosphate-2-Hydrazinobenzoate) Hydrazone] |
| 3.93 | CC(C=NNc1ccc(C(=O)O)cc1)=NNc1ccc(C(=O)O)cc1 [Methyl Glyoxal Bis-(4-Hydrazinobenzoic Acid) Hydrazone] |
| < 2.00 | COCCOCCOC(=O)c1ccccc1NN=CC(C)=NNc1ccccc1C(=O)OCCOCCOC [Methyl Glyoxal Bis-(Diethylene Glycol Methyl Ether 2-Hydrazinobenzoate) Hydrazone] |
| < 2.00 | COC(=O)c1ccccc1NN=CC(C)=NNc1ccccc1C(=O)OC [Methyl Glyoxal Bis-(Dimethyl 2-Hydrazinobenzoate)Hydrazone] |
| < 2.00 | CC(C=NNc1ccccc1)=NNc1ccccc1 [Methyl Glyoxal Bis-(Phenylhydrazine) Hydrazone] |
| < 2.52 | CC(C=NNc1ccccc1C(=O)OCC(O)CO)=NNc1ccccc1C(=O)OCC(O)CO (centres unmarked) [Methyl Glyoxal Bis-[1-(2,3-Dihydroxypropane)-2-Hydrazinobenzoate] Hydrazone] |
| 2.52 | CC(C=NNc1ccccc1C(=O)OCCO)=NNc1ccccc1C(=O)OCCO [Methyl Glyoxal Bis-[1-(2-Hydroxyethane)-2-Hydrazinobenzoate] Hydrazone] |
| 3.81 | CC(C=NNc1ccccc1C(=O)O)=NNc1ccccc1C(=O)O [Methylglyoxal Bis-(2-Hydrazinobenzoic Acid) Hydrazone] |

Tested on: glycated bovine serum albumin (AGE-BSA) cross-linking to rat tail tendon collagen
Test: not given
Conditions: 4 h, pH 7.4

| pIC50 | Compound |
| --- | --- |
| 1.94 | CC(C=NNc1ccc(C(=O)O)cc1)=NNc1ccc(C(=O)O)cc1 [Methyl Glyoxal Bis-(4-Hydrazinobenzoic Acid) Hydrazone] |
| 4.40 | CC(C=NNc1ccccc1C(=O)O)=NNc1ccccc1C(=O)O [Methylglyoxal Bis-(2-Hydrazinobenzoic Acid) Hydrazone] |

Tested on: fixed protein (gelatin, i.e., collagen) surface
Test: Surface browning experiment on gelatin/paper disks with glucose-6-phosphate
Conditions: Peridex at a final concentration of 0.04% chlorhexidine, with 100 Mm glucose-6-phosphate, one week at 50° C.
Method: To further study the ability of inhibitors of nonenzymatic browning to prevent the discoloration of protein on a surface, such as that which occurs on the tooth surface, the following surface browning experiment is performed. As a substitute for a pellicle-covered tooth surface, unexposed and developed photographic paper is used to provide a fixed protein (gelatin, i.e., collagen) surface on a paper backing. Five millimeter circles are punched and immersed for one week at 50° C. in a solution of 100 Mm glucose-6-phosphate in a 0.5M phosphate buffer, pH 7.4, containing 3 Mm sodium azide. Glucose-6-phosphate is a sugar capable of participating in nonenzymatic browning at a more rapid rate than glucose. In addition to the glucose-6-phosphate, chlorhexidine and/or a compound of Formula I are included. After incubation, the gelatin/paper disks are rinsed with water, observed for brown color, and photographed.

| Compound | browning of the gelatin/paper disks |
| --- | --- |
| [H]/N=C(\N/C(=N/[H])NCCCCCCNC(=N)NC(=N)Nc1ccc(Cl)cc1)Nc1ccc(Cl)cc1 [chlorhexidine] | significant browning |
